From patent publication EP4417616A1, “LXR ANTAGONISTS” (Ospedale San Raffaele S.r.l., priority 2023, dated 2024)

Experiments:
[1] = system: MC-38-OVA-liver metastases; type: in vivo, mice; settings: 1440 h
Method: (§1) . Forty-eight hours later the cells were differentiated and expanded by IL-7/IL15 (5ng/ml both cytokines) with or without PFM037. Ten, 12 and 15 days later, FACS analysis was performed to evaluate their differentiation status. […]. Then, mice bearing MC-38-OVA-liver metastases were treated with vehicle, or OT-I T cells expanded with IL-2 (effectors), or IL-7/IL15 with or without PFM037. Tumor-bearing mice injected with vehicle were all dead 40 days after tumor injection. Twenty percent of tumor-bearing mice treated with OT-I T cells expanded with IL-2 were alive at 60 days, whereas 50% and 80% of tumor-bearing mice treated with IL-7/IL15 with or without PFM037, respectively, were alive at 60 days (Fig. 20). […].

[2] = system: bone marrow-purified monocytes; assay: In vitro mono-DC differentiation of bone marrow-purified monocytes cultured with M-CSF; type: cell-based, mouse; settings: wild type monocytes, 48 hours of culture
OT-I T cells = assay: In vitro differentiation and expansion of activated OT-I T cells by IL-7/IL15; type: cell-based, mouse
Method: as §1

RMA lymphoma = assay: Treatment of RMA tumor-bearing mice; settings: 300 µg i.v. 5 days/week
Method: Analysis of tumor infiltrating cells by flow cytometry. […] Tumors collected 7, 10, 12 or 14 days after injection were cut into small fragments and digested with Liberase TL (66 µg/ml, Roche) and DNAse I (150 µg/ml, Roche) for 25-30 minutes at 37 °C. Digested tissues were filtered by using a 75 µm diameter cell strainer. Single cell suspensions were stained with Live/Dead Violet kit reagents (Molecular Probes) for 30 minutes at 4°C. After washing, the cells were incubated for 5-10 minutes at RT with Fc-blocking solution (Anti-CD16/32, 10 µg/ml mouse Fc Block, BD) and then stained with various antibodies incubated at 4°C for 20 minutes. […] CD209a (5H10), CCR7 (4b12) and F4/80 (BM8) were from eBioscience. Rat IgG, Rat IgG2a, Rat IgG2b, Rat IgM and Hamster isotype control mAbs were used as controls (Biolegends and BD Biosciences). For intracellular staining, cells were incubated with PMA (100 ng/ml) and ionomycin (500 ng/ml) in the presence of 10 µg/ml of Brefeldin for 4 hours. Cells were then fixed using the IC Fixation buffer (eBioscience), permeabilized with 1x Permeabilization buffer (eBiosciences) and stained with anti-IFNy mAb. Samples were run by FACSCanto flow cytometer and analyzed by FlowJo software gating on live cells. FACS sorting was performed by using the FACSAria Fusion (BD)
Tumor challenge experiments. C57BL/6 mice were injected subcutaneously with LLC-Mock (1 ×10^6), LLC-SULT2B1b (1 ×10^6), RMA (2 ×10^5), or B16F1-OVA (2 ×10^5) tumor cells. […] Tumor size was evaluated by measuring perpendicular diameters by a caliper every 2-3 days. Data are reported as the average tumor volume ± SD. In selected experiments tumors were injected in Ccr2^-/-mice.
Treatment of tumor-bearing mice with LXR antagonists alone or with immunotherapy. Tumor-bearing mice were treated with 25-HC-3S or PFM037 6-7 days after tumor challenge. After 6-7 days, mice were randomly assigned to either treatment or vehicle groups. Mice were injected with 300 µg of either compound given i.v. for 5 days/week. […] B16F1-OVA-bearing mice were treated with 400 µg of PFM037 for 5 days/week. For controls of mAb experiments, mice were injected with 250 µg of rat IgG2a isotype control antibody. […] Tumors were collected and measured 14 days after tumor challenge.

[3] = Blood plasma chemistry analysis (plasma lipids); type: in vivo; settings: tumor-bearing mice; PFM037 (0.4 µg/day); Fig. 5N
Method: Blood Plasma Chemistry Analysis. For all in vivo experiments mouse blood samples were collected via cardiac puncture and isolated plasma was analyzed by the COBAS c311 system (Roche) for plasma lipids.

[4] = system: Lewis Lung Carcinoma (LLC); assay: Treatment of LLC tumor-bearing mice; type: in vivo
Source text: Tumor challenge experiments.

[5] = OT-I T cells expanded by IL-7/IL15 with PFM037, FACS at 10, 12 and 15 days
[6] = LLC-bearing mice, 300 µg i.v. 5 days/week from day 6-7, vs vehicle

**Q.** Which “tumor-bearing mice alive at 60 days” value [1] does the source give for CC(C)CC[C@H](O)[C@@H](C)[C@H]1CC[C@H]2[C@@H]3CC=C4C[C@@H](OS(=O)(=O)[O-])CC[C@]4(C)[C@H]3CC[C@]12C.[Na+] [PFM037, 22(S)-Hydroxycholesterol-3-sulfate sodium salt] here?
**A.** The value was 50%.

**Q.** And the CD11c marker expression [2]?
**A.** The CD11c marker expression was “expressed CD11c marker”.

**Q.** And the “CD39 and CD69 markers” value (OT-I T cells; [5])?
**A.** The value was “progressively lost”.

**Q.** And the “CD62L and CD44low markers” value (OT-I T cells; [5])?
**A.** Its value is “progressively acquiring”.

**Q.** What about the “stemness markers Sca1, Tcf1 and CXCR3” value (OT-I T cells; T cells expanded by IL7 and IL15 in the presence of PFM037) of the same compound?
**A.** Its value is “higher levels”.

**Q.** And the “numbers of tumor-infiltrating mono-DCs” value (RMA lymphoma)?
**A.** The value was “Higher”.

**Q.** What about the tumor growth (RMA lymphoma; tumor weight at sacrifice) of the same compound?
**A.** Its tumor growth is “tumor growth control”.

**Q.** And the “plasma HDL” value [3]?
**A.** The value was “reduced levels”.

**Q.** And the “plasma LDL” value [3]?
**A.** Its value is “did not change”.

**Q.** What about the “plasma not esterified fatty acids” value [3] of the same compound?
**A.** Its value is “reduced levels”.

**Q.** What about the plasma total cholesterol [3] of the same compound?
**A.** Its plasma total cholesterol is “reduced levels”.

**Q.** What about the plasma triglycerides [3] of the same compound?
**A.** Its plasma triglycerides is “reduced levels”.

**Q.** And the “absolute numbers of tumor-infiltrating mono-DCs” value [4, 6]?
**A.** The value was “Higher”.

**Q.** What about the tumor growth [4, 6] of the same compound?
**A.** Its tumor growth is “delay of tumor growth”.

**Q.** And the tumor growth ([4]; established LLC tumors, 300 µg/mouse every other day, Fig. 24B)?
**A.** Its tumor growth is “able to control LLC tumor growth”.

**Q.** And the “LLC growth in wild type BM-chimera mice” value ([4]; wild type BM-chimera mice, compared to vehicle, Fig. 7C)?
**A.** The value was “better control of LLC growth”.
